{
  "source": "patent US7531548B2",
  "about": "“HIV inhibiting 5-carbo- or heterocyclic substituted pyrimidines” (priority 2004, dated 2009)",
  "data": [
    {"units": {"melting point": "°C"}, "values": [
      {"smiles": "Cc1cc(/C=C/C#N)cc(C)c1Nc1nc(Nc2ccc(C#N)cc2)ncc1NCc1cccnc1", "melting point": 140},
      {"smiles": "Cc1cc(/C=C/C#N)cc(C)c1Nc1nc(Nc2ccc(C#N)cc2)ncc1CNCc1cccnc1", "melting point": 236},
      {"smiles": "CCc1cscn1", "melting point": "> 250"}
    ]}
  ]
}
